# Source: patent US12178840B2, “Method and compositions comprising a CT20 peptide” (UNIVERSITY OF CENTRAL FLORIDA RESEARCH FOUNDATION, INC., priority 2014, dated 2024)
# Residues, ends and D or L forms follow the SMILES beside them.
# Tests used:
# Format in all cases: cell-based, human
# MDA-MB-231 cells = experiment: Timeline of biological effects of CT20 in HBPE-NPs in breast cancer cells; details: CT20 (˜3.4 nM) in HBPE-NPs
# Description: CT20 peptide impaired mitochondrial movement (mitotracker green) (A) leading to clustering (JC-1 probe) (B) and reduced F-actin (green) polymerization (nucleus, DAPI, blue (C). Referring to FIG. 3D, the viability of cells was determined by measuring membrane permeability (Sytox) and membrane asymmetry (violet ratiometric dye). Gates are: N, necrotic; V, viable; A, apoptotic. Percentages are V (black) and N+A (red). Referring to FIG. 3E, by 6 hours, cells detach from substrate (fibronectin). Referring to FIG. 3F, membrane levels of β1 integrin decrease. Referring to FIG. 3G-3I, post-cell detachment events include caspase activation, autophagy, and increased ROS production. Referring to FIG. 3J, apoptosis/anoikis was detected between 24-48 hours as described for 3D.
# (§1) This triggered hyperpolarization of the mitochondrial membrane and fusion-like aggregation (FIG. 3B) that impaired mitochondrial redistribution, ATP production, and F-actin polymerization (FIG. 3C). Cells remained viable during these “initiating events” (FIG. 3D). However, at 6 hours post-CT20 treatment, cells began detaching from the substrate (fibronectin) (FIG. 3E). This was preceded by decreased expression of integrins (β1 integrin is shown; FIG. 3F). By 24 hours post-CT20 treatment, “effector events” caused by peptide-induced detachment were detected, including the activation of caspases (FIG. 3G), the induction of autophagy (FIG. 3H), and increased ROS production (FIG. 3I). Cell death (anoikis), indicated by membrane asymmetry, was detected in cancer cells by 48 hours (FIG. 3J).
# MCF-10A cells = experiment: Biological effects of CT20 in HBPE-NPs in normal control epithelial cells; details: CT20 (˜3.4 nM) in HBPE-NPs
# Description: as §1
# [1] = system: cells isolated from primary breast tumors; experiment: Lethality in cells isolated from primary breast tumors; details: CT20 peptide in HBPE-NPs
# From the text: 40× magnification. CCTβ was detected in invasive breast cancer.
# The lethality of CT20 was also examined in cells isolated from primary breast tumors and paired normal tissue. […] To this end, the levels of CCTβ were examined in a pilot tissue array of breast cancer tissue cores by immunohistochemistry (IHC) and detected CCTβ in invasive breast cancer (FIG. 14B).
# tubulin in MCF-10A cells = experiment: Fixed cell immunofluorescence of tubulin; details: 24 hours of CT20p treatment
# Description: Fixed cell immunofluorescence: Cells were seeded on glass coverslips (Fisher) in a 6-well plate at a density of 150,000 cells/well. Cells at 60% confluency were treated with CT20p or left untreated for 24 hours. After CT20p treatment, cells were stained with Mitotracker Red CMXRos (Life Technologies) at a concentration of 200 nM for 30 minutes, before being fixed in ice cold methanol for 10 minutes at −20° C. Cells were then permeabilized in 0.1% Triton X-100 for 10 minutes at 37° C. Samples were blocked in 5% normal goat serum (Santa Cruz) for 30 minutes at 37° C., then incubated with primary antibody α-tubulin (DM1A) (Santa Cruz) for 3 hours at 37° C. Secondary antibody was goat α-mouse IgG-FITC (Santa Cruz) and was applied for 1 hour at room temperature. Coverslips were mounted in UltraCruz mounting media (Santa Cruz), which contains DAPI for nuclear staining. Images were obtained with a Zeiss LSM 710 microscope, using a Zeiss 63× Pan-Apocromat oil immersion lens and Zeiss Zen software. To determine average tubulin levels per cell, the amount of FITC fluorescence intensity per region of interest was divided by the number of cells in the field. At least four images containing between 5 and 12 cells were quantified for each condition. Image analysis was done using Volocity software (Perkin Elmer). […]
structure (smiles),measurement,setting,value
CC[C@H](C)[C@H](NC(=O)[C@@H](NC(=O)[C@H](CC(C)C)NC(=O)[C@H](CO)NC(=O)[C@H](C)NC(=O)[C@@H](NC(=O)[C@H](CC(C)C)NC(=O)[C@@H](NC(=O)CNC(=O)[C@H](C)NC(=O)[C@@H](NC(=O)[C@H](Cc1ccccc1)NC(=O)[C@@H](NC(=O)[C@@H](NC(=O)[C@@H](NC(C)=O)C(C)C)[C@@H](C)O)[C@@H](C)CC)C(C)C)C(C)C)[C@@H](C)O)[C@@H](C)O)C(=O)N[C@@H](Cc1c[nH]c2ccccc12)C(=O)N[C@@H](CCCCN)C(=O)N[C@@H](CCCCN)C(=O)N[C@@H](CCSC)C(=O)NCC(N)=O [CT20] (Ac-VTIFVAGVLTASLTIWKKMG-NH2),Movement of mitochondria compared to controls,MDA-MB-231 cells,decreased four-fold
same,"Time by which cell death (anoikis, membrane asymmetry) was detected",MDA-MB-231 cells,≤ 48 h
same,Time at which cells began detaching from the substrate (fibronectin),MDA-MB-231 cells; post-CT20 treatment,6 h
same,"Time by which effector events (caspase activation, autophagy, increased ROS) were detected",MDA-MB-231 cells; post-CT20 treatment,≤ 24 h
same,Cytoskeletal impairment and cell death in control epithelial cell line,MCF-10A cells,not observed
same,Cytoskeletal impairment and cell death in control epithelial cell line,MCF-10A cells; listed as CT20 peptide,minimal cell death
same,Lethality,[1],killed the tumor cells
same,Amount of tubulin per cell,tubulin in MCF-10A cells,no significant loss
